# In ChEMBL document CHEMBL5375972, “Discovery of Novel 2,3-Dihydro-1H-indene-5-sulfonamide NLRP3 Inflammasome Inhibitors Targeting Colon as a Potential Therapy for Colitis” (J Med Chem, 2023):
# The source made the active and inactive calls. No cut-off for these calls is given here.
# What was measured:
# Type in all cases: functional, organism-based
# Settings in all cases: time 9.0 day
# [1] = test system: Mus musculus; test: Anti-inflammatory activity in DSS-induced ulcerative colitis C57BL/6 mouse model assessed as increase in colon length at 10 mg/kg,ip administrated for 9 days
# [2] = test system: Mus musculus; test: Anti-inflammatory activity in DSS-induced ulcerative colitis C57BL/6 mouse model assessed as reduction in disease activity index (DAI) score at 10 mg/kg,ip administrated for 9 days
# [3] = test system: Mus musculus; test: Anti-inflammatory activity in DSS-induced ulcerative colitis C57BL/6 mouse model assessed as increase in body weight at 10 mg/kg,ip administrated for 9 days
# [4] = test system: Mus musculus; test: Anti-inflammatory activity in DSS-induced ulcerative colitis C57BL/6 mouse model assessed as reduction in histological colitis severity score at 10 mg/kg,ip administrated for 9 days
smiles,measurement,setting,value
CC(C)(O)c1coc(S(=O)(=O)NC(=O)Nc2c3c(cc4c2CCC4)CCC3)c1,Activity,[1],Active
same,Activity,[2],Active
same,Activity,[3],Active
same,Activity,[4],inactive
